In general, IC50 refers to the concentration that gives 50% inhibition.

In experiment [1] the target is T1, IDO1 (Homo sapiens (Human), UniProt P14902). Briefly: IDO1 Cellular Assay in Hela Cells Stimulated with IFNγ. Format: cell-based. Conditions: Hela cells stimulated with IFNγ 100 ng/mL; read-out: IDO1 HELA Cell Assay, IC50.
The target of experiment [2] is T1, IDO1. Briefly: IDO1 Enzyme Assay. The following applies: HIS-tagged recombinant IDO1, 40 nM.
Experiment [3] addresses T1, IDO1. In words: IDO1 Cellular Assay in Frozen HEK293 Cells Transiently Transfected with Human IDO1. Format: cell-based. The following applies: read-out: IDO1 HEK293 Cell Assay, IC50.
Where [4] appears, read: read-out: IDO1 Enzyme Assay, IC50.
Setting [5] is: HEK293 cells transiently transfected with human IDO1.

T1 sequence (P14902 whole entry): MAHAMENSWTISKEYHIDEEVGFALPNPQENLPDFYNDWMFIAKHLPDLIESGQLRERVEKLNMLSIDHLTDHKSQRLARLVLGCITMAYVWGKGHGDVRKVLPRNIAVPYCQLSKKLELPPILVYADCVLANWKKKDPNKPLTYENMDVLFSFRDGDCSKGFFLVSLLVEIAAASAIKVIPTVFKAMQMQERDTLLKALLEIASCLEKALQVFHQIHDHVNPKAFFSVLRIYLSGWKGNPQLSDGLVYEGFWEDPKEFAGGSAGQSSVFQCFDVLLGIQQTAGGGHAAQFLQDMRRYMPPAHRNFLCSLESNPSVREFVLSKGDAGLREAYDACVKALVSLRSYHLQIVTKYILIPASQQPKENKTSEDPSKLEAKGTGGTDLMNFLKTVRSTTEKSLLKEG

Turning to `CCCCNC(=O)NCCSc1nonc1C(=NO)Nc1ccc(F)c(Br)c1` [Example 127, N-(3-bromo-4-fluorophenyl)-4-({2-[(bulylcarbamoyl)amino]ethyl}sulfanyl)-N′-hydroxy-1,2,5-oxadiazole-3-carboximidamide], the IC50 is 0.219 µM on IDO1 [1], 33.5 nM on IDO1 [2] (setting [4]) and 0.115 µM at IDO1 [3] (setting [5]).
In the case of `CCNC(=O)CSc1nonc1C(=NO)Nc1ccc(F)c(Br)c1` [Example 110, 2-({4-[N-(3-bromo-4-fluorophenyl)-N′-hydroxycarbamimidoyl]-1,2,5-oxadiazol-3-yl}sulfanyl)-N-ethylacetamide], the 50% inhibitory concentration (IC50) came to 0.0543 µM on IDO1 [1]; 48.5 nM at IDO1 [2] (IDO1 Enzyme Assay, IC50, nM); 0.0256 µM on IDO1 [3] (setting [5]).
Taken in the same sequence, the figures for `COCCNC(=O)NCCSc1nonc1C(=NO)Nc1ccc(F)c(Br)c1` [Example 132, N-(3-bromo-4-fluorophenyl)-N′-hydroxy-4-[(2-{[(2-methoxyethyl)carbamoyl]amino}ethyl)sulfanyl]-1,2,5-oxadiazole-3-carboximidamide] were 0.0317 µM, 32.1 nM and 0.0331 µM.
For `O/N=C(\Nc1ccc(F)c(Br)c1)c1nonc1SCCN1CCOCC1` [Example 126, N-(3-bromo-4-fluorophenyl)-N′-hydroxy-4-[(2-morpholin-4-ylethyl)sulfanyl]-1,2,5-oxadiazole-3-carboximidamide], the IC50 on IDO1 [1] came out at 0.0926 µM; on IDO1 [2] (setting [4]), 57.5 nM; on IDO1 [3] (setting [5]) it was 0.0529 µM.
Regarding `CC(O)CNC(=O)CSc1nonc1C(=NO)Nc1ccc(F)c(Br)c1` (stereo not drawn) [Example 138, 2-({4-[N-(3-bromo-4-fluorophenyl)-N′-hydroxycarbamimidoyl]-1,2,5-oxadiazol-3-yl}sulfanyl)-N-(2-hydroxypropyl)acetamide], the IC50 at IDO1 [1] is 0.0547 µM; at IDO1 [2] (IDO1 Enzyme Assay, IC50, nM) it was 38.7 nM; at IDO1 [3] (setting [5]), 0.06 µM.
In the case of `CN1C[C@H](CSc2nonc2/C(=N/O)Nc2ccc(F)c(Br)c2)NC1=O` [Example 123, N-(3-bromo-4-fluorophenyl)-N′-hydroxy-4-({[(4R)-1-methyl-2-oxoimidazolidin-4-yl]methyl}sulfanyl)-1,2,5-oxadiazole-3-carboximidamide], the IC50 on IDO1 [1] came out at 0.0757 µM; at IDO1 [2] (setting [4]) it was 44.2 nM; on IDO1 [3] (setting [5]), 0.0378 µM.
Turning to `N/C(=C\[N+](=O)[O-])NCCSc1nonc1C(=NO)Nc1ccc(F)c(Br)c1` [Example 99, 4-[(2-{[(E)-1-amino-2-nitroethenyl]amino}ethyl)sulfanyl]-N-(3-bromo-4-fluorophenyl)-N′-hydroxy-1,2,5-oxadiazole-3-carboximidamide], the IC50 on IDO1 [1] is 0.195 µM; at IDO1 [2] (setting [4]) it was 84 nM; at IDO1 [3] (setting [5]), 0.231 µM.
As to `CC(C)OC(=O)[C@H](C)NP(=O)(CCSc1nonc1/C(=N/O)Nc1ccc(F)c(Br)c1)N[C@@H](C)C(=O)OC(C)C` [Example 97, 1-methylethyl (2S,6S)-4-[2-({4-[N-(3-bromo-4-fluorophenyl)-N′-hydroxycarbamimidoyl]-1,2,5-oxadiazol-3-yl}sulfanyl)ethyl]-2,6,9-trimethyl-7-oxo-8-oxa-3,5-diaza-4-phosphadecan-1-oate 4-oxide], the IC50 stood at 0.38 µM at IDO1 [1], 132 nM at IDO1 [2] (setting [4]) and 0.745 µM at IDO1 [3] (setting [5]).
Consider `CN1C(=O)NC[C@@H]1CSc1nonc1/C(=N/O)Nc1ccc(F)c(Br)c1` [Example 43, (R)—N-(3-bromo-4-fluorophenyl)-N′-hydroxy-4-(((3-methyl-2-oxoimidazolidin-4-yl)methyl)thio)-1,2,5-oxadiazole-3-carboximidamide], for which the IC50 at IDO1 [1] was 0.118 µM; on IDO1 [2] (setting [4]), 53.3 nM; at IDO1 [3] (setting [5]) it was 0.0785 µM.
Regarding `CC(=O)NCCSc1nonc1/C(=N/O)Nc1ccc(F)c(C)c1` [Example 51, N-[2-({4-[N-(4-fluoro-3-methylphenyl)-N′-hydroxycarbamimidoyl]-1,2,5-oxadiazol-3-yl}sulfanyl)ethyl]acetamide], the figures for the IC50 on IDO1 [1], at IDO1 [2] (setting [4]) and on IDO1 [3] (setting [5]) were 0.0481 µM, 113 nM and 0.106 µM, respectively.
For the compound `CC(=O)NCCSc1nonc1/C(=N/O)Nc1ccc(F)c(Br)c1` [Example 11, (Z)—N-(2-((4-(N-(3-Bromo-4-fluorophenyl)-N′-hydroxycarbamimidoyl)-1,2,5-oxadiazol-3-yl)thio)ethyl)acetamide], the figures for the IC50 on IDO1 [1], on IDO1 [2] (setting [4]) and on IDO1 [3] (setting [5]) were 0.0093 µM, 27.7 nM and 0.0222 µM, respectively.
For `O=c1c(NCCSc2nonc2/C(=N/O)Nc2ccc(F)c(Br)c2)c(N2CCCCC2)c1=O` [Example 93, N-(3-bromo-4-fluorophenyl)-4-({2-[(3,4-dioxo-2-piperidin-1-ylcyclobut-1-en-1-yl)amino]ethyl}sulfanyl)-N′-hydroxy-1,2,5-oxadiazole-3-carboximidamide], the figures for the IC50 on IDO1 [1], on IDO1 [2] (setting [4]) and at IDO1 [3] (setting [5]) were 0.249 µM, 39 nM and 0.404 µM, respectively.
Regarding `C[C@@H](O)[C@@H](CO)NC(=O)CSc1nonc1/C(=N/O)Nc1ccc(F)c(Br)c1` [Example 143, 2-({4-[N-(3-bromo-4-fluorophenyl)-N′-hydroxycarbamimidoyl]-1,2,5-oxadiazol-3-yl}sulfanyl)-N-[(1R,2R)-2-hydroxy-1-(hydroxymethyl)propyl]acetamide], the IC50 at IDO1 [1] worked out at 0.0348 µM; at IDO1 [2] (setting [4]), 53.9 nM; on IDO1 [3] (setting [5]) it was 0.0651 µM.
For the compound `CC(=O)CSc1nonc1/C(=N/O)Nc1ccc(F)c(Br)c1` [Example 115, N-(3-bromo-4-fluorophenyl)-N′-hydroxy-4-[(2-oxopropyl)sulfanyl]-1,2,5-oxadiazole-3-carboximidamide], the IC50 at IDO1 [1] came out at 0.168 µM; at IDO1 [2] (setting [4]), 51 nM; on IDO1 [3] (setting [5]) it was 0.105 µM.
On to `COC(=O)[C@@H](N)CSc1nonc1/C(=N/O)Nc1ccc(F)c(Br)c1` [Example 48, methyl S-{4-[N-(3-bromo-4-fluorophenyl)-N′-hydroxycarbamimidoyl]-1,2,5-oxadiazol-3-yl}-L-cisteinate], for which the figures for the IC50 at IDO1 [1], at IDO1 [2] (setting [4]) and on IDO1 [3] (setting [5]) were 0.648 µM, 170 nM and 0.226 µM, respectively.
Regarding `O=C(CSc1nonc1/C(=N/O)Nc1ccc(F)c(Br)c1)NC1CC1` [Example 113, 2-({4-[N-(3-bromo-4-fluorophenyl)-N′-hydroxycarbamimidoyl]-1,2,5-oxadiazol-3-yl}sulfanyl)-N-cyclopropylacetamide], the IC50 was 0.0765 µM on IDO1 [1]; 47.3 nM at IDO1 [2] (IDO1 Enzyme Assay, IC50, nM); 0.0354 µM on IDO1 [3] (setting [5]).
Take `CCNc1c(NCCSc2nonc2/C(=N/O)Nc2ccc(F)c(Br)c2)c(=O)c1=O` [Example 55, N-(3-bromo-4-fluorophenyl)-4-[(2-{[2-(ethylamino)-3,4-dioxocyclobut-1-en-1-yl]amino}ethyl)sulfanyl]-N′-hydroxy-1,2,5-oxadiazole-3-carboximidamide]: the concentration for half-maximal inhibition (IC50) was 0.0678 µM at IDO1 [1], 20.2 nM at IDO1 [2] (setting [4]) and 0.261 µM at IDO1 [3] (setting [5]).
For `Cc1nccn1CCSc1nonc1C(=NO)Nc1ccc(F)c(Br)c1` [Example 151, N-(3-bromo-4-fluorophenyl)-N′-hydroxy-4-{[2-(2-methyl-1H-imidazol-1-yl)ethyl]sulfanyl}-1,2,5-oxadiazole-3-carboximidamide], the IC50 at IDO1 [1] was 0.156 µM; on IDO1 [2] (IDO1 Enzyme Assay, IC50, nM), 96.3 nM; on IDO1 [3] (setting [5]), 0.0793 µM.
Regarding `O=c1[nH]nc(CSc2nonc2/C(=N/O)Nc2ccc(F)c(Br)c2)cc1C(F)(F)F` [Example 92, N-(3-bromo-4-fluorophenyl)-N′-hydroxy-4-({[6-oxo-5-(trifluoromethyl)-1,6-dihydropyridazin-3-yl]methyl}sulfanyl)-1,2,5-oxadiazole-3-carboximidamide], the IC50 on IDO1 [1] amounted to 0.145 µM; on IDO1 [2] (setting [4]) it was 99.5 nM; at IDO1 [3] (setting [5]) it was 0.364 µM.
For the compound `ON=C(Nc1ccc(F)c(Br)c1)c1nonc1SCCn1cncn1` [Example 154, N-(3-bromo-4-fluorophenyl)-N′-hydroxy-4-{[2-(1H-1,2,4-triazol-1-yl)ethyl]sulfanyl}-1,2,5-oxadiazole-3-carboximidamide], the IC50 is 0.041 µM on IDO1 [1]; 31.4 nM on IDO1 [2] (IDO1 Enzyme Assay, IC50, nM); 0.0261 µM on IDO1 [3] (setting [5]).
For `CCCSc1nonc1/C(=N/O)Nc1ccc(F)c(Br)c1` [Example 23, (Z)-N-(3-bromo-4-fluorophenyl)-N′-hydroxy-4-(propylthio)-1,2,5-oxadiazole-3-carboximidamide], the IC50 at IDO1 [1] came to 0.154 µM; on IDO1 [2] (setting [4]) it was 187 nM; on IDO1 [3] (setting [5]) it was 0.263 µM.
In the case of `O=C(NCCSc1nonc1/C(=N/O)Nc1ccc(F)c(Br)c1)C(F)(F)F` [Example 79, N-[2-({4-[N-(3-bromo-4-fluorophenyl)-N′-hydroxycarbamimidoyl]-1,2,5-oxadiazol-3-yl}sulfanyl)ethyl]-2,2,2-trifluoroacetamide], the figures for the IC50 at IDO1 [1], at IDO1 [2] (setting [4]) and on IDO1 [3] (setting [5]) were 0.0241 µM, 61.6 nM and 0.0275 µM, respectively.
As for `O=C1CC[C@H](CSc2nonc2/C(=N/O)Nc2ccc(F)c(Br)c2)N1` [Example 83, N-(3-bromo-4-fluorophenyl)-N′-hydroxy-4-({[(2R)-5-oxopyrrolidin-2-yl]methyl}sulfanyl)-1,2,5-oxadiazole-3-carboximidamide], the IC50 on IDO1 [1] was 0.0759 µM; at IDO1 [2] (setting [4]), 22.8 nM; on IDO1 [3] (setting [5]), 0.0115 µM.
As for `CNP(=O)(CCSc1nonc1/C(=N/O)Nc1ccc(F)c(Br)c1)NC` [Example 103, 4-({2-[bis(methylamino)phosphoryl]ethyl}sulfanyl)-N-(3-bromo-4-fluorophenyl)-N′-hydroxy-1,2,5-oxadiazole-3-carboximidamide], the IC50 at IDO1 [1] stood at 0.0323 µM; on IDO1 [2] (setting [4]), 48.5 nM; on IDO1 [3], 0.0845 µM.
Consider `OCCCSc1nonc1/C(=N/O)Nc1ccc(F)c(Br)c1` [Example 19, (Z)-N-(3-bromo-4-fluorophenyl)-N′-hydroxy-4-((3-hydroxypropyl)thio)-1,2,5-oxadiazole-3-carboximidamide], for which the results for the IC50 on IDO1 [1], at IDO1 [2] (setting [4]) and on IDO1 [3] (setting [5]) were 0.0397 µM, 71.9 nM and 0.0397 µM, respectively.

Source of the values: patent US10538497B2, “Compounds as indoleamine 2,3-dioxygenase inhibitors” (Merck Sharp & Dohme Corp., priority 2015, dated 2020).
